{"source": "patent US20250313879A1", "about": "“Fluorescent Probe for Detecting Peptide Bond Hydrolase” (The University of Tokyo, priority 2022, published 2025)", "key": {"DPP4": {"target": "T1, DPP4 (Homo sapiens, UniProt P27487)", "T1 construct": "from tissue; host or cells: human plasma of pancreatic cancer patients and healthy subjects", "T1 sequence (P27487 whole entry)": "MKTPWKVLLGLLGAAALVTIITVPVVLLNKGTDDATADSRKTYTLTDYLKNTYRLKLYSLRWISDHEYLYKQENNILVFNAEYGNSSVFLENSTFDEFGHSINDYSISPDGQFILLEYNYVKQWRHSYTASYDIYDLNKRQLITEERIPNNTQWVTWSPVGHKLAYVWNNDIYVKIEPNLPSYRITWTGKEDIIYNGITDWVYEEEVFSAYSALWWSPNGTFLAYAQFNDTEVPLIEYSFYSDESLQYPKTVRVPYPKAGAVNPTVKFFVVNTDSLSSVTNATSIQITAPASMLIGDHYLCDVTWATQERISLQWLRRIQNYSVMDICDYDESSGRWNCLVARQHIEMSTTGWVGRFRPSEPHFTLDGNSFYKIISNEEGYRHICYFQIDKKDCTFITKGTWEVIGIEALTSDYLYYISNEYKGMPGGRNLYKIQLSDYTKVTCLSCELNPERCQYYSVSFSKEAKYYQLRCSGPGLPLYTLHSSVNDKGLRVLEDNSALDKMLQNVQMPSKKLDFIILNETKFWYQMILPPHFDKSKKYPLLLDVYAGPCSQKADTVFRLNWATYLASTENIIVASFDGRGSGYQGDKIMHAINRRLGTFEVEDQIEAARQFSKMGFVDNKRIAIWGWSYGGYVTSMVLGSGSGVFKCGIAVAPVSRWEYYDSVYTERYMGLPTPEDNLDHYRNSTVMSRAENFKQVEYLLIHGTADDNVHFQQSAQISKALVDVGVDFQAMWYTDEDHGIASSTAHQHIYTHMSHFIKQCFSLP", "experiment": "Diagnostic experiment of pancreatic cancer utilizing single-molecule enzyme activity of DPP4", "assay_type": "biochemical", "method": "In order to detect the single-molecule enzyme activity of DPP4, an experiment to verify the availability of the probe GP-sHMRG to which Gly-Pro is bonded as a reaction point to detect a pancreatic cancer biomarker was performed in the following procedures. • 1. GP-sHMRG as a DPP4 detecting probe was diluted with an assay buffer to 100 μM. The composition of the assay buffer is 100 mM HEPES-NaOH (pH 7.4), 1 mM MgCl2, 1 mM CaCl2), 1 mM DTT, 3 mM Triton X-100. • 2. Next, human plasma samples collected from 30 patients with pancreatic cancer and 30 healthy subjects were each diluted by 2,500 times with the above assay buffer, and mixed in an equal amount with the diluted solution of GP-sHMRG. At this time, the final concentrations of both are 50 μM for the GP-sHMRG probe and 5,000 fold dilution for the human plasma sample. • 3. The mixed solution of both was then added to a microdevice, followed by the addition of sealing oil to enclose the solution in each well. • 4. The microdevice in which the solution was enclosed was incubated at 25° C. for 2 hours, and then the fluorescence intensity of each well was measured with a fluorescence microscope. […] The histogram created based on the detected fluorescence intensity of each well is approximated to a curve including two normal distributions.\nSpecifically, in this example, an ROC curve for determination based on the enzyme activity of DPP4 determined based on the proportion of the high activity group is created, and when a threshold is subtracted at the time when the proportion of the high activity group is 55%, the sensitivity is 37% and the specificity is 97% (the right view of FIG. 4). It is possible to determine pancreatic cancer by such an ROC curve."}, "dipeptidyl peptidase [1]": {"tested_on": "dipeptidyl peptidase", "experiment": "Signal/noise ratio of enzymolysate in microdevice", "assay_type": "biochemical", "settings": "30 μM probe, 0.2 ng/mL dipeptidyl peptidase, 25° C. 2 hours", "method": "(§1) For two types of compounds Glu-sSiR (PB206/Example 12) and GP-sHMRG (PB109/Example 7), the signal/noise ratios of the enzymolysates before and after the enzyme reaction in the cuvette and the microdevice were each measured as follows. In the following experiments, the composition of the assay buffer is 100 mM HEPES-NaOH (pH 7.4), 1 mM MgCl2, 1 mM CaCl2), […].\nFor GP-sHMRG, three kinds of solutions of (iv) only an assay buffer, (v) 30 μM of GP-sHMRG, and (vi) 30 μM of GP-sHMRG and 0.2 ng/mL of dipeptidyl peptidase were prepared, and each solution was added to a microdevice, followed by the addition of sealing oil to enclose the solution in each well. The microdevice in which the solution was enclosed was incubated at 25° C. for 2 hours, and then the fluorescence intensity of each well was measured with a fluorescence microscope. When a difference between the average values of the fluorescence intensities of the respective wells in (v) and (iv) was defined as noise, a difference between the average value of the fluorescence intensities of the wells in which the enzyme was encapsulated in (vi) and the average value of the fluorescence intensities of the respective wells in (iv) was defined as a signal, and a ratio of these values was calculated as the signal/noise ratio of the enzymolysate, the ratio was 287 times (see FIG. 8, panel B). […]"}, "[2]": {"tested_on": "peptidase activity in human plasma sample", "experiment": "Enzyme activity assay in microdevice with human plasma, peptidase probes", "assay_type": "biochemical", "settings": "50 μM probe, human plasma 5,000 fold dilution, 25° C. for 2 hours", "method": "(§2) • 1. GP-sHMRG as a fluorescent probe for detecting peptidase activity was diluted with an assay buffer to 100 μM. The composition of the assay buffer is 100 mM HEPES-NaOH (pH 7.4), 1 mM MgCl2, 1 mM CaCl2, 1 mM DTT, 3 mM Triton X-100. • 2. Next, a human plasma sample was diluted by 2,500 times with the above assay buffer, and mixed in an equal amount with the diluted solution of the probe. At this time, the final concentrations of both are 50 μM for GP-sHMRG and 5,000 fold dilution for the human plasma sample. • 3. The mixed solution of both was then added to a microdevice, followed by the addition of sealing oil to enclose the solution in each well. • 4. The microdevice in which the solution was enclosed was incubated at 25° C. for 2 hours, and then the fluorescence intensity of each well was measured with a fluorescence microscope.\nas §2, with “1. Ac-Ala-sHMRG” for “1. GP-sHMRG”, “by 250” for “by 2,500”, “for Ac-Ala-sHMRG” for “for GP-sHMRG”, “and 500” for “and 5,000”, “at 37°” for “at 25°”, “for 4” for “for 2”\n• 1. Ac-GP-sSiR as a fluorescent probe for detecting peptidase activity was diluted with an assay buffer to 100 μM. The composition of the assay buffer is 100 mM HEPES-NaOH (pH 7.4), 1 mM MgCl2, 1 mM CaCl2, 1 mM DTT, 3 mM Triton X-100. • 2. […] The microdevice in which the solution was enclosed was incubated at 37° C. for 2 hours, and then the fluorescence intensity of each well was measured with a fluorescence microscope."}, "[3]": {"experiment": "Solubility in sealing oil (hexadecane)", "assay_type": "physicochemical", "settings": "oil or lipid, kinetic from dmso stock, room temperature (25° C.), three tests, average value±standard deviation", "method": "That is, 1 μL of a 10 mM DMSO solution of the test compound was added with respect to 100 μL of hexadecane as sealing oil, and the mixture was sonicated and suspended at room temperature (25° C.) for 1 minute. Thereafter, the solution was centrifuged for 30 seconds, 50 μL of the supernatant was collected and mixed with 100 μL of methanol, and a compound dissolved in hexadecane was extracted. Thereafter, the methanol solution from which the compound was extracted was analyzed by ultra performance liquid chromatography (UPLC) (eluent: A/B=95/5>5/95, A: 0.1% formic acid-containing 100% H2O, B: 0.1% formic acid-containing 100% CH3CN), and the concentration of the compound in the methanol solution was calculated from the peak area. In the calculation of the solution concentration using the UPLC peak area, solutions having a plurality of concentrations were prepared and measured for each compound, then a calibration curve was prepared (FIG. 5), and the calculation was performed according to the calibration curve."}, "dipeptidyl peptidase [4]": {"tested_on": "dipeptidyl peptidase", "experiment": "Signal/noise ratio of enzymolysate in cuvette", "assay_type": "biochemical", "settings": "10 μM probe, 17 ng/mL dipeptidyl peptidase, 25° C. 9 hours, @527 nm", "method": "as §1\nGP-sHMRG was diluted with an assay buffer so as to be 10 μM, then added to a quartz cuvette, and the fluorescence spectrum before the enzyme reaction was measured with a fluorometer (excitation wavelength: 500 nm). Thereafter, dipeptidyl peptidase was added so that the concentration in the solution was 17 ng/mL, the solution was incubated at 25° C. for 9 hours, and then the fluorescence spectrum was measured. The fluorescence spectra before and after the enzyme reaction were compared, the ratio of the values at a wavelength at which the fluorescence intensity was maximized was calculated as the signal/noise ratio of the enzymolysate, the ratio was 481 times (@527 nm) (see FIG. 7B)."}, "[5]": {"settings": "threshold: proportion of the high activity group is 55%, pancreatic cancer vs healthy"}}, "data": [{"smiles": "NCC(=O)N1CCCC1C(=O)Nc1ccc2c(c1)Oc1cc(N)ccc1C21OCc2cc(S(=O)(=O)O)ccc21", "note": "(stereo not shown) [GP-sHMRG]", "values": [{"measurement": "ratio of the high activity group to the total of high and low activity groups", "setting": "DPP4; patients with pancreatic cancer compared with healthy subjects, 50 μM probe, plasma 5,000 fold dilution, 25° C. 2 hours", "value": "significant increase"}, {"measurement": "sensitivity (ROC curve, DPP4 activity)", "setting": "DPP4; [5]", "value": 37, "unit": "%"}, {"measurement": "specificity (ROC curve, DPP4 activity)", "setting": "DPP4; [5]", "value": 97, "unit": "%"}, {"measurement": "signal/noise ratio of the enzymolysate", "setting": "dipeptidyl peptidase [1]", "value": 287, "unit": "times"}, {"measurement": "fluorescence intensity of wells in which the reacting enzyme was enclosed", "setting": "[2]", "value": "increase in fluorescence intensity was observed"}, {"measurement": "solubility at 1 min", "setting": "[3]", "value": "0.27 ± 0.026", "unit": "µM"}, {"measurement": "signal/noise ratio of the enzymolysate", "setting": "dipeptidyl peptidase [4]", "value": 481, "unit": "times"}]}]}
